The source of these data is ChEMBL document CHEMBL3352376, “Amine substitution of quinazolinones leads to selective nanomolar AChE inhibitors with 'inverted' binding mode” (Bioorg Med Chem, 2014).

Experiment [1] concerns the target Acetylcholinesterase (Electrophorus electricus, UniProt O42275).
The target of experiment [2] is Cholinesterase (Equus caballus, UniProt P81908).
The target in experiment [3] is Histamine H3 receptor (Homo sapiens, UniProt Q9Y5N1). The experiment can be described thus: Inhibition of human H3 receptor.
The target in experiment [4] is T1, Acetylcholinesterase (Homo sapiens, UniProt P22303).
Experiment [5] deals with Acetylcholinesterase (Electrophorus electricus) (UniProt O42275). The experiment in a line: Inhibition of electric eel AChE at 50 uM.
For experiment [6], the target named is Cholinesterase (Equus caballus) (UniProt P81908). The experiment in a line: Inhibition of equine serum BChE at 50 uM.
For experiment [7], the target named is T1, Acetylcholinesterase. The experiment can be described thus: Inhibition of human AChE at 100 uM.

Several values for one entry are separate records, joined by “and”; a condition that tells them apart may be missing. Equal entries are not always repeated. Activity calls are given as the source filed them. No cut-off for these calls is given here.

Chain of Cholinesterase (P81908 whole entry): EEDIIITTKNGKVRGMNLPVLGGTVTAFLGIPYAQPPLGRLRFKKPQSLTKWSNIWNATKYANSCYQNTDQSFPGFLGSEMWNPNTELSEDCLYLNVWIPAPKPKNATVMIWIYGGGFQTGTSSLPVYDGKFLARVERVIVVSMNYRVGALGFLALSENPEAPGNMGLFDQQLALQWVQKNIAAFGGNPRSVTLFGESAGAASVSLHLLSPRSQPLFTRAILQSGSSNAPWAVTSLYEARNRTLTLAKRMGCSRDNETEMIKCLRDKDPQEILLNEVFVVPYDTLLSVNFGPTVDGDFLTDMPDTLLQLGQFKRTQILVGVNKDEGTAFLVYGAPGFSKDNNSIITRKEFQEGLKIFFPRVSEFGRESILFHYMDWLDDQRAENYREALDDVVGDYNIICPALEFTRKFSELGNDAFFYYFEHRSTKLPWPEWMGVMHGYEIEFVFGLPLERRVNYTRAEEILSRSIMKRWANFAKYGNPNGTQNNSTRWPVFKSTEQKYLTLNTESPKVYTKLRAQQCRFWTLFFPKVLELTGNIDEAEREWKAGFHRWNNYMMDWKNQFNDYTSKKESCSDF
T1 sequence (P22303 whole entry): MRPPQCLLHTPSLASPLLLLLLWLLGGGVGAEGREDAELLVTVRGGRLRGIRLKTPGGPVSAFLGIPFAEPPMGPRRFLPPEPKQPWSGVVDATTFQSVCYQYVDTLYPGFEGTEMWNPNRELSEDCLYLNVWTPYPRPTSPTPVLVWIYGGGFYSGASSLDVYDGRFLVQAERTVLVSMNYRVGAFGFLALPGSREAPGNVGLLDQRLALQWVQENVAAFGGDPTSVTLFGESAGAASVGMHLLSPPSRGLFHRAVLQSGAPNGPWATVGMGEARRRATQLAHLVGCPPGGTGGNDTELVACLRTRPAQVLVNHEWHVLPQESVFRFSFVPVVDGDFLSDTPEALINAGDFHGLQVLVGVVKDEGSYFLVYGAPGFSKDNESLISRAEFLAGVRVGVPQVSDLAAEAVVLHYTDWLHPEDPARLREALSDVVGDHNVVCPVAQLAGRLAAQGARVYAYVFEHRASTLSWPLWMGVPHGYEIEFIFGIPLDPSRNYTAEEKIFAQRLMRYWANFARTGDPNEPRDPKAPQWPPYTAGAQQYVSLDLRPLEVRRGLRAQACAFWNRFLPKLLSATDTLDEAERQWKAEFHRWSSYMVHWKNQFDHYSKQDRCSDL
Chain of Acetylcholinesterase (Electrophorus electricus, UniProt O42275) (O42275 whole entry): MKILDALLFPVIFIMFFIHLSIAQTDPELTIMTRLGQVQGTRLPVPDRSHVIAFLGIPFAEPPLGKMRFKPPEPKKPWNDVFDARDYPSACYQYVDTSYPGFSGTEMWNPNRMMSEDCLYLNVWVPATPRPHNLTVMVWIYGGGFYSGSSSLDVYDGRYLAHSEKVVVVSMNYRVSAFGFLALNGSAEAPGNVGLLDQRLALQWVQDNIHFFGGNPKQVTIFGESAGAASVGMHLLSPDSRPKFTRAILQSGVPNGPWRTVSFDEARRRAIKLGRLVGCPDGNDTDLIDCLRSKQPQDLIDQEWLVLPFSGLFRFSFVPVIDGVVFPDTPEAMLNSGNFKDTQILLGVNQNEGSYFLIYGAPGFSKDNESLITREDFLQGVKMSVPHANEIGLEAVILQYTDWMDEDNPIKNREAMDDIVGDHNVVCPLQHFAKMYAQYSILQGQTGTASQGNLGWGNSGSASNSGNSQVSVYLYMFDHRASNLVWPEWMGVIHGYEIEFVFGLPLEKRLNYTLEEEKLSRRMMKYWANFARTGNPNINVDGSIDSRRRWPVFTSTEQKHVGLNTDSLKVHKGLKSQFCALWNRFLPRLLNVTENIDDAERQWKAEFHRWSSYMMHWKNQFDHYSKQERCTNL
Chain of Acetylcholinesterase (Electrophorus electricus) (O42275 24-633 limits assumed): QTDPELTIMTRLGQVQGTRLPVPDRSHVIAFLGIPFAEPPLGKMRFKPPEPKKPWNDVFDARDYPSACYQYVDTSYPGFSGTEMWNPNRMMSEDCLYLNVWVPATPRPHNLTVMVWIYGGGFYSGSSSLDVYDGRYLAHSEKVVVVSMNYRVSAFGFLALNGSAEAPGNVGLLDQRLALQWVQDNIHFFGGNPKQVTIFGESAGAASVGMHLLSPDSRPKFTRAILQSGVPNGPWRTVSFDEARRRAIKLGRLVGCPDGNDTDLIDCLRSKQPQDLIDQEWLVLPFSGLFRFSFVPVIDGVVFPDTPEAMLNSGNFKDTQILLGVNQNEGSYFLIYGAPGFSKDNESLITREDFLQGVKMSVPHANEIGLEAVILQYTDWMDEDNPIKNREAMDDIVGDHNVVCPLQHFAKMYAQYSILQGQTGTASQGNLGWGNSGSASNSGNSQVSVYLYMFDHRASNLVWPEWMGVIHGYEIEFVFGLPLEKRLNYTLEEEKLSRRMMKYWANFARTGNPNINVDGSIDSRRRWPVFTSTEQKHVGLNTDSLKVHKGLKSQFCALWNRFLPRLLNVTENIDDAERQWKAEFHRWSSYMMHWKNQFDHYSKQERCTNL
Chain of Cholinesterase (Equus caballus) (P81908 whole entry): as the sequence (P81908 whole entry) above
Chain of Histamine H3 receptor (Q9Y5N1 whole entry): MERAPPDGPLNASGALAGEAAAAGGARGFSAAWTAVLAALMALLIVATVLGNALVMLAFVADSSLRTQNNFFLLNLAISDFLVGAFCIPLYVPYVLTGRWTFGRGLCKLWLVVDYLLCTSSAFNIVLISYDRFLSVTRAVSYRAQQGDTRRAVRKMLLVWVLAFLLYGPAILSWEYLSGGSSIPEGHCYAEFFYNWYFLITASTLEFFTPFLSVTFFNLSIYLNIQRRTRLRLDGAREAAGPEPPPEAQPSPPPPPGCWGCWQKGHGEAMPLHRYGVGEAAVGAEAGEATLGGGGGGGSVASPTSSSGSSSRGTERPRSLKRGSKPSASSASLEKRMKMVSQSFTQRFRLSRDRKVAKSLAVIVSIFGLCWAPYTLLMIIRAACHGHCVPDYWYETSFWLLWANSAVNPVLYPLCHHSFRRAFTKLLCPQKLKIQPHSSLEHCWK

What is called IC50 is the concentration needed to halve the response being measured. Read a low IC50 as higher potency. As to `O=c1c2cc(OCCCN3CCCC3)ccc2nc2n1Cc1ccccc1-2`, the IC50 in experiment [1] came to 16.2 nM; in experiment [2] it was 2400 nM.

As for `O=c1c2cc(OCCCN3CCc4ccccc4C3)ccc2nc2n1CCCc1ccccc1-2`, the IC50 in experiment [1] stood at 1190 nM; in experiment [2], 1840 nM.

A word on the Ki: it is the dissociation constant of the complex between target and ligand, obtained from inhibition or displacement. In turn, `c1cc2c(cc1OCCCN1CCCCC1)CN1CCCC1=N2` showed a Ki in experiment [3] of 76.2 nM. Moreover, the IC50 turned out to be 33.9 nM in experiment [4] and 66.5 nM in experiment [1].

Regarding `O=c1c2cc(OCCCN3CCCCC3)ccc2nc2n1CCc1ccccc1-2`, the IC50 in experiment [4] was 217 nM and 216 nM; in experiment [1] it was 5.5 nM; in experiment [2], 955 nM.

In the case of `CCN(CC)CCCOc1ccc2nc3n(c(=O)c2c1)CCC3`, the figures for the IC50 in experiment [4], in experiment [1] and in experiment [2] were 1200 nM, 101 nM and 829 nM, respectively.

Take `CCN(CC)CCCOc1ccc2nc3n(c(=O)c2c1)CCc1ccccc1-3`: the IC50 was determined as 669 nM in experiment [4], 47.5 nM in experiment [1] and 2160 nM in experiment [2].

For the molecule `O=c1c2cc(OCCCN3CCCCCC3)ccc2nc2n1CCc1ccccc1-2`, the IC50 in experiment [1] was found to be 13 nM; in experiment [2], 584 nM.

Molecule `O=c1c2cc(OCCCN3CCCC3)ccc2nc2n1CCc1ccccc1-2` displayed an IC50 in experiment [1] of 91.1 nM.

As to `O=c1c2cc(OCCCN3CCCCC3)ccc2nc2n1CCCCC2`, the IC50 was 820 nM in experiment [4], 43 nM in experiment [1] and 12700 nM in experiment [2].

On to `O=c1c2cc(OCCCn3ccnc3)ccc2nc2n1CCCc1ccccc1-2`, for which the IC50 in experiment [4] came out at 56500 nM; in experiment [1], 10300 nM; in experiment [2], 52000 nM.

For `O=c1c2cc(OCCCN3CCc4ccccc4C3)ccc2nc2n1Cc1ccccc1-2`, the IC50 in experiment [1] turned out to be 227 nM; in experiment [2], 1730 nM.

On to `O=c1c2cc(OCCCN3CCc4ccccc4C3)ccc2nc2n1CCC2`, for which the IC50 in experiment [1] was determined as 868 nM; in experiment [2] it was 776 nM.

On to `O=c1c2cc(OCCCN3CCCCCC3)ccc2nc2n1Cc1ccccc1-2`, for which the figures for the IC50 in experiment [1] and in experiment [2] were 5 nM and 1870 nM, respectively.

Turning to `O=c1c2cc(OCCCN3CCCCCC3)ccc2nc2n1CCCCC2`, the IC50 worked out at 39.2 nM in experiment [1] and 1800 nM in experiment [2].

For the molecule `CCN(CC)CCCOc1ccc2nc3n(c(=O)c2c1)CCCCC3`, the figures for the concentration for half-maximal inhibition (IC50) in experiment [4], in experiment [1] and in experiment [2] were 12100 nM, 50.6 nM and 10800 nM, respectively.

For the molecule `O=c1c2cc(OCCCN3CCCC3)ccc2nc2n1CCCc1ccccc1-2`, the IC50 was 529 nM in experiment [1] and 3610 nM in experiment [2].

Consider `O=c1c2cc(OCCCN3CCCCC3)ccc2nc2n1CCCC2`, for which the IC50 is 225 nM in experiment [4], 33.3 nM in experiment [1] and 6550 nM in experiment [2].

On to `O=c1c2cc(OCCCN3CCCC3)ccc2nc2n1CCCCC2`, for which the IC50 in experiment [1] came to 295 nM; in experiment [2] it was 12200 nM.

In the case of `O=c1c2cc(OCCCN3CCCCC3)ccc2nc2n1CCC2`, the IC50 stood at 1100 nM in experiment [4], 69.2 nM in experiment [1] and 122000 nM in experiment [2].

Consider `O=c1c2cc(OCCCN3CCCC3)ccc2nc2n1CCCC2`, for which the IC50 in experiment [1] amounted to 210 nM; in experiment [2], 16100 nM.

Consider `O=c1c2cc(OCCCN3CCc4ccccc4C3)ccc2nc2n1CCCCC2`, for which the IC50 in experiment [1] came to 653 nM; in experiment [2], 3030 nM.

Take `CCN(CC)CCCOc1ccc2nc3n(c(=O)c2c1)Cc1ccccc1-3`: the IC50 is 200 nM in experiment [4], 11 nM in experiment [1] and 1880 nM in experiment [2].

As to `O=c1c2cc(OCCCn3ccnc3)ccc2nc2n1CCCCC2`, the IC50 in experiment [1] worked out at 3950 nM; in experiment [2], 59800 nM.

In the case of `O=c1c2cc(OCCCn3ccnc3)ccc2nc2n1CCC2`, the half-maximal inhibitory concentration (IC50) in experiment [1] came to 1900 nM; in experiment [2], 14600 nM.

Take `CCN(CC)CCCOc1ccc2nc3n(c(=O)c2c1)CCCc1ccccc1-3`: the IC50 in experiment [4] amounted to 4200 nM; in experiment [1], 72.1 nM; in experiment [2] it was 5100 nM.

As for `O=c1c2cc(OCCCN3CCCCC3)ccc2nc2n1CCCc1ccccc1-2`, the IC50 in experiment [4] was determined as 535 nM; in experiment [1] it was 57.1 nM; in experiment [2], 2670 nM.

On to `O=c1c2cc(OCCCN3CCc4ccccc4C3)ccc2nc2n1CCCC2`, for which the figures for the IC50 in experiment [1] and in experiment [2] were 723 nM and 5490 nM, respectively.

For the molecule `O=c1c2cc(OCCCN3CCCCCC3)ccc2nc2n1CCC2`, the IC50 in experiment [1] came out at 50.2 nM; in experiment [2], 5220 nM.

For the molecule `O=c1c2cc(OCCCn3ccnc3)ccc2nc2n1Cc1ccccc1-2`, the IC50 in experiment [1] stood at 454 nM; in experiment [2] it was 9110 nM.

For the molecule `O=c1c2cc(OCCCn3ccnc3)ccc2nc2n1CCCC2`, the IC50 is 4240 nM in experiment [1]; 50000 nM and 59000 nM in experiment [2].

Turning to `O=c1c2cc(OCCCN3CCCCC3)ccc2nc2n1Cc1ccccc1-2`, the IC50 was 143 nM and 142 nM in experiment [4]; 6.9 nM in experiment [1].

As to `O=c1c2cc(OCCCN3CCCCCC3)ccc2nc2n1CCCC2`, the IC50 was 58.5 nM in experiment [1]; 1770 nM and 2670 nM in experiment [2].

Regarding `O=c1c2cc(OCCCN3CCCCCC3)ccc2nc2n1CCCc1ccccc1-2`, the IC50 was 53.4 nM in experiment [1] and 865 nM in experiment [2].

Take `O=c1c2cc(OCCCCCCCCCN3CCCCC3)ccc2nc2n1CCC2`: the values for the IC50 in experiment [1] and in experiment [2] were 390 nM and 8600 nM, respectively.

In the case of `O=c1c2cc(OCCCN3CCCC3)ccc2nc2n1CCC2`, the figures for the IC50 in experiment [1] and in experiment [2] were 50 nM and 10600 nM, respectively.

Turning to `O=c1c2cc(OCCCN3CCc4ccccc4C3)ccc2nc2n1CCc1ccccc1-2`, the IC50 in experiment [1] amounted to 625 nM; in experiment [2] it was 1830 nM.

As to `O=c1c2cc(OCCCn3ccnc3)ccc2nc2n1CCc1ccccc1-2`, the IC50 in experiment [1] is 2440 nM; in experiment [2], 8680 nM.

As a reminder, the inhibition is how much of the control response was suppressed. As to `O=c1c2cc(OCCCC3CCCCC3)ccc2nc2n1Cc1ccccc1-2`, the inhibition in experiment [5] was determined as 34%; in experiment [7], 35%. The inhibition result in experiment [6] was “inactive”.

For the molecule `CCN(CC)CCCOc1ccc2nc3n(c(=O)c2c1)CCCC3`, the IC50 in experiment [4] turned out to be 1500 nM; in experiment [1] it was 43 nM; in experiment [2], 9140 nM.
